Data from patent US8435986B2, “Bicyclic traizole derivatives for treating of tumors” (Merck Patent Gesellschaft mit beschrankter Haftung, priority 2008, dated 2013).
pIC50: −log10 of the molar value. Counter-ions that a name gives are not always drawn.

How the values were obtained:
Met kinase [1] = biological target: T1, Met kinase (Homo sapiens, UniProt P08581); assay: Met kinase inhibition, cellular assay; format: cell-based; settings: read-out: Cellular assay IC50 (cell)
Target sequence in this assay (P08581 25-1390): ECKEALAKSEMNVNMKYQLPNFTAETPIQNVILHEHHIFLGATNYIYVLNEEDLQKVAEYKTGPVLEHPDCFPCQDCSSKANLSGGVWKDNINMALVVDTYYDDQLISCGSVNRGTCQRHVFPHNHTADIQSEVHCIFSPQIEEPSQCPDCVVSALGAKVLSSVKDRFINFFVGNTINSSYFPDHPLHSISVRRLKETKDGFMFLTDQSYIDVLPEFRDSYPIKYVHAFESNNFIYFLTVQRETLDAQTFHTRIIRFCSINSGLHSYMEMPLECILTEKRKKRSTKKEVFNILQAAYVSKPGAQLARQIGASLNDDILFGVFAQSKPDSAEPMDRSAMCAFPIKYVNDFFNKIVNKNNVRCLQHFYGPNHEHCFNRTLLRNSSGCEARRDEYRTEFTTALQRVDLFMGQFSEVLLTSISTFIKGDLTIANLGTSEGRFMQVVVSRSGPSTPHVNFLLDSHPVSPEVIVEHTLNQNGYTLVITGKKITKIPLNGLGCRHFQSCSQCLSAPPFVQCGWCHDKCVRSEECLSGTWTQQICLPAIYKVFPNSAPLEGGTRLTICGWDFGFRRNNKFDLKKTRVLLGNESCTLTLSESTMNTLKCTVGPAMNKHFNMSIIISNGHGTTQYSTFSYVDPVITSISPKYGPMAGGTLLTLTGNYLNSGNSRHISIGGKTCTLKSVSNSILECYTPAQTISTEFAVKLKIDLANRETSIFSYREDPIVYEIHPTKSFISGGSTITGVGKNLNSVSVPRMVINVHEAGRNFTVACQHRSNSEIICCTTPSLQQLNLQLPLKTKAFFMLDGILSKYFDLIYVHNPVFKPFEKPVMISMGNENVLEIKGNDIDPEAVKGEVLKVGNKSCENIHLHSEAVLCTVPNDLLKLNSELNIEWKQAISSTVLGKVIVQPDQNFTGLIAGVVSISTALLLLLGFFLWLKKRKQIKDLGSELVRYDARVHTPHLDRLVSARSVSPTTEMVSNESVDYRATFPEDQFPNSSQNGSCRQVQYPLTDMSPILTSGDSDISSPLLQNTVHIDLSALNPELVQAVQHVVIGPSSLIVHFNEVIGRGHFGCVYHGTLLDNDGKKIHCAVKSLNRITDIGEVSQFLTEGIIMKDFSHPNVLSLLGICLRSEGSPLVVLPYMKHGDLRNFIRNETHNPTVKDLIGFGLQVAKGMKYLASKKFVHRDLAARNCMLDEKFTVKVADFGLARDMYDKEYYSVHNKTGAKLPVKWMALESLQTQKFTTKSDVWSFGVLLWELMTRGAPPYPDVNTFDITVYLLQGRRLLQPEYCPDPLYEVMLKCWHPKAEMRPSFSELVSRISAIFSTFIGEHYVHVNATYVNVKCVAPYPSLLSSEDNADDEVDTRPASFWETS

Met kinase [2] = biological target: T1, Met kinase; assay: Met kinase inhibition, biochemical assay (flashplate method); design: 6His (N); purchased Upstate 14-526; host or cells: Sf21 insect cells (S. frugiperda), baculovirus; settings: read-out: Biochemical assay IC50 (enzyme)
Excerpt: Measurement of Met Kinase Activity
According to the manufacturer's data (Met, active, Upstate, catalogue No. 14-526), Met kinase is expressed for the purposes of protein production in insect cells (Sf21; S. frugiperda) and subsequent affinity-chromatographic purification as “N-terminal 6His-tagged” recombinant human protein in a baculovirus expression vector.
Flashplate Method (Met Kinase)
The test plates used are 96-well Flashplate® microtitre plates from Perkin Elmer (Cat. No. SMP200). The components of the kinase reaction described below are pipetted into the assay plate. The Met kinase and the substrate poly Ala-Glu-Lys-Tyr, (pAGLT, 6:2:5:1), are incubated for 3 hrs at room temperature with radioactively labelled ^33P-ATP in the presence and absence of test substances in a total volume of 100 μl. The reaction is terminated using 150 μl of a 60 mM EDTA solution. After incubation for a further 30 min at room temperature, the supernatants are filtered off with suction, and the wells are washed three times with 200 μl of 0.9% NaCl solution each time. The measurement of the bound radioactivity is carried out by means of a scintillation measuring instrument (Topcount NXT, Perkin-Elmer).
The full value used is the inhibitor-free kinase reaction. This should be approximately in the range 6000-9000 cpm. The pharmacological zero value used is staurosporin in a final concentration of 0.1 mM. The inhibitory values (IC50) are determined using the RS1_MTS program.
Kinase reaction conditions per well:
10 μl of substance to be tested in assay buffer with 10% of DMSO
10 μl of ATP (final concentration 1 μM cold, 0.35 μCi of ^33P-ATP)
50 μl of Met kinase/substrate mixture in assay buffer; • (10 ng of enzyme/well, 50 ng of pAGLT/well) • Solutions used: • Assay buffer: • 50 mM HEPES • 3 mM magnesium chloride • 3 μM sodium orthovanadate • 3 mM manganese(II) chloride • 1 mM dithiothreitol (DTT) • pH=7.5 (to be set using sodium hydroxide) • Stop solution: • 60 mM Titriplex III (EDTA) • ^33P-ATP: Perkin-Elmer; • Met kinase: Upstate, Cat. No. 14-526, Stock 1 μg/10 μl; spec. activity 954 U/mg; • Poly-Ala-Glu-Lys-Tyr, 6:2:5:1: Sigma Cat. No. P1152 In-Vivo Tests
Target sequence in this assay (P08581 974-1390 limits assumed): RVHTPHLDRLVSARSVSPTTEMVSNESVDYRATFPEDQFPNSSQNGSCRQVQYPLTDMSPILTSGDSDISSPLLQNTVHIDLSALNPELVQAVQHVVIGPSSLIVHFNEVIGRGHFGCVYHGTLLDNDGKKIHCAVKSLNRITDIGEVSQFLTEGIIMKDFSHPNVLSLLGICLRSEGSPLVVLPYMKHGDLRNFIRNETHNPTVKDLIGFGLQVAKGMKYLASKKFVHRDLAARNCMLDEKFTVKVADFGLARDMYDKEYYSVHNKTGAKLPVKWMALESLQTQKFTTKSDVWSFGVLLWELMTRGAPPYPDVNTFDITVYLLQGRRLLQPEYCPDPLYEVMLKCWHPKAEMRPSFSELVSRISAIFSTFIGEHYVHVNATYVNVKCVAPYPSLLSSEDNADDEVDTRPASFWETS

`Cn1cc(-c2cnc3nnn(Cc4cccc(-c5ncc(OCCN6CCOCC6)cn5)c4)c3n2)cn1` [Compound A2, 6-(1-methyl-1H-pyrazol-4-yl)-1-{3-[5-(2-morpholin-4-ylethoxy)-pyrimidin-2-yl]benzyl}-1H-1,2,3-triazolo[4,5-b]pyrazine] was tested, and the pIC50 (Met kinase [1]) was 7.00 to 9.00 and the pIC50 (Met kinase [2]) was 7.00 to 9.00.
Work on `Fc1ccc2nnn(Cc3cccc(-c4ncc(OCCN5CCOCC5)cn4)c3)c2c1F` [Compound A46] yielded a pIC50 (Met kinase [1]) of 7.00 to 9.00 and a pIC50 (Met kinase [2]) of 7.00 to 9.00.
Work on `Cn1cc(-c2cnc3nnn(Cc4cccc(-c5ncc(OC6CCNCC6)cn5)c4)c3n2)cn1` [Compound A6] yielded a pIC50 (Met kinase [1]) of 7.00 to 9.00 and a pIC50 (Met kinase [2]) of 7.00 to 9.00.
Work on `c1cc(Cn2nnc3ccccc32)cc(-c2ncc(OCCN3CCOCC3)cn2)c1` [Compound A3, 1-{3-[5-(2-morpholin-4-ylethoxy)pyrimidin-2-yl]benzyl}-1H-benzotriazole] yielded a pIC50 (Met kinase [1]) of 5.00 to 7.00 and a pIC50 (Met kinase [2]) of 7.00 to 9.00.
In the case of `Cn1cc(-c2cnc3nnn(Cc4cccc(-c5ncc(-c6cnn(CCN7CCCC7)c6)cn5)c4)c3n2)cn1` [Compound A24, 6-(1-methyl-1H-pyrazol-4-yl)-1-(3-{5-[1-(2-pyrrolidin-1-yl-ethyl)-1H-pyrazol-4-yl]pyrimidin-2-yl}benzyl)-1H-1,2,3-triazolo[4,5-b]-pyrazine hydrochloride], the pIC50 (Met kinase [1]) was 7.00 to 9.00 and the pIC50 (Met kinase [2]) was 7.00 to 9.00.
`Oc1cnc(-c2cccc(Cn3nnc4ncc(-c5cc(F)cc(F)c5)nc43)c2)nc1` [Compound B10, 2-{3-[6-(3,5-difluorophenyl)-1,2,3-triazolo[4,5-b]pyrazin-1-ylmethyl]phenyl}-pyrimidin-5-ol] showed a pIC50 (Met kinase [1]) of 7.00 to 9.00 and a pIC50 (Met kinase [2]) of 7.00 to 9.00.
`CN1CCN(CCOc2cnc(-c3cccc(Cn4nnc5ncc(-c6cnn(C)c6)nc54)c3)nc2)CC1=O` [Compound B19] was tested, and the pIC50 (Met kinase [1]) was 7.00 to 9.00 and the pIC50 (Met kinase [2]) was 7.00 to 9.00.
In the case of `OCCn1cc(-c2cnc3nnn(Cc4cccc(-c5ncc(OCCN6CCOCC6)cn5)c4)c3n2)cn1` [Compound B34], the pIC50 (Met kinase [1]) was 7.00 to 9.00 and the pIC50 (Met kinase [2]) was 7.00 to 9.00.
In the case of `Clc1ccc2c(c1)nnn2Cc1cccc(-c2ncc(OCCN3CCOCC3)cn2)c1` [Compound B35, 5-Chloro-1-{3-[5-(2-morpholin-4-ylethoxy)pyrimidin-2-yl]benzyl}-1H-benzotriazole], the pIC50 (Met kinase [1]) was less than 5.00 and the pIC50 (Met kinase [2]) was 5.00 to 7.00.
In the case of `CN1CCN(CCOc2cnc(-c3cccc(Cn4nnc5ncc(-c6cnn(C)c6)nc54)c3)nc2)CC1` [Compound B17], the pIC50 (Met kinase [1]) was 7.00 to 9.00 and the pIC50 (Met kinase [2]) was 7.00 to 9.00.
`Fc1cc(F)cc(-c2cnc3nnn(Cc4cccc(-c5ncc(OCCN6CCNCC6)cn5)c4)c3n2)c1` [Compound B23] was tested, and the pIC50 (Met kinase [1]) was 7.00 to 9.00 and the pIC50 (Met kinase [2]) was 7.00 to 9.00.
Work on `Fc1cc(F)cc(-c2cnc3nnn(Cc4cccc(-c5ncc(OCC6CCNCC6)cn5)c4)c3n2)c1` [Compound B24] yielded a pIC50 (Met kinase [1]) of 7.00 to 9.00 and a pIC50 (Met kinase [2]) of 7.00 to 9.00.
In the case of `Cn1cc(-c2cnc3nnn(Cc4cccc(-c5ncc(OCC6CCNCC6)cn5)c4)c3n2)cn1` [Compound A9], the pIC50 (Met kinase [1]) was 7.00 to 9.00 and the pIC50 (Met kinase [2]) was 7.00 to 9.00.
For `Brc1cnc(-c2cccc(Cn3nnc4ncc(Br)nc43)c2)nc1` [Compound B1, 6-bromo-1-[3-(5-bromopyrimidin-2-yl)benzyl]-1H-1,2,3-triazolo[4,5-b]pyrazine], the pIC50 (Met kinase [1]) was 5.00 to 7.00 and the pIC50 (Met kinase [2]) was 7.00 to 9.00.
In the case of `Brc1cnc2nnn(Cc3cccc(-c4ncc(OCCN5CCOCC5)cn4)c3)c2n1` [Compound A1, 6-bromo-1-{3-[5-(2-morpholin-4-ylethoxy)pyrimidin-2-yl]benzyl}-1H-1,2,3-triazolo[4,5-b]-pyrazine], the pIC50 (Met kinase [1]) was 7.00 to 9.00.
`Cn1cc(-c2cnc3nnn(Cc4cccc(-c5ncc(OCC6CNCCO6)cn5)c4)c3n2)cn1` (stereo not shown) [Compound B20] was tested, and the pIC50 (Met kinase [1]) was 7.00 to 9.00 and the pIC50 (Met kinase [2]) was 7.00 to 9.00.
In the case of `O=[N+]([O-])c1ccc(Br)cc1NCc1cccc(-c2ncc(OCCN3CCOCC3)cn2)c1` [Compound B36, (5-bromo-2-nitrophenyl)-{3-[5-(2-morpholin-4-ylethoxy)-pyrimidin-2-yl]benzyl}amine], the pIC50 (Met kinase [1]) was 5.00 to 7.00 and the pIC50 (Met kinase [2]) was 7.00 to 9.00.
With `N#Cc1cccc(-c2cnc3nnn(Cc4cccc(-c5ncc(-c6cnn(CCN7CCCC7)c6)cn5)c4)c3n2)c1` [Compound B21] the pIC50 (Met kinase [1]) was 7.00 to 9.00 and the pIC50 (Met kinase [2]) was 7.00 to 9.00.
`CN(C)CCOc1cnc(-c2cccc(Cn3nnc4ncc(-c5cnn(C)c5)nc43)c2)nc1` [Compound B14, dimethyl-[2(2-{3-[6-(1-methyl-1H-pyrazol-4-yl)-1,2,3-triazolo[4,5-b]pyrazin-1-ylmethyl]phenyl}pyrimidin-5-yloxy)ethyl]amine hydrochloride] showed a pIC50 (Met kinase [1]) of 7.00 to 9.00 and a pIC50 (Met kinase [2]) of 7.00 to 9.00.
With `COCCOc1cnc(-c2cccc(Cn3nnc4ncc(-c5cnn(C)c5)nc43)c2)nc1` [Compound B16] the pIC50 (Met kinase [1]) was 7.00 to 9.00 and the pIC50 (Met kinase [2]) was 7.00 to 9.00.
`Clc1ccc2nnn(Cc3cccc(-c4ncc(OCCN5CCOCC5)cn4)c3)c2n1` [Compound A48, 5-chloro-3-{3-[5-(2-morpholin-4-ylethoxy)pyrimidin-2-yl]-benzyl}-3H-1,2,3-triazolo[4,5-b]pyridine] gave a pIC50 (Met kinase [1]) of 5.00 to 7.00 and a pIC50 (Met kinase [2]) of 7.00 to 9.00.
`N#Cc1cccc(-c2cnc3nnn(Cc4cccc(-c5ncc(OCCN6CCNCC6)cn5)c4)c3n2)c1` [Compound B22] showed a pIC50 (Met kinase [1]) of 7.00 to 9.00 and a pIC50 (Met kinase [2]) of 7.00 to 9.00.
Compound `Cn1cc(-c2cnc3nnn(Cc4cccc(-c5ncc(OCCCO)cn5)c4)c3n2)cn1` [Compound B15] has a pIC50 (Met kinase [1]) of 7.00 to 9.00 and a pIC50 (Met kinase [2]) of 7.00 to 9.00.
In the case of `N#Cc1cccc(-c2cnc3nnn(Cc4cccc(-c5ncc(OC6CCNCC6)cn5)c4)c3n2)c1` [Compound A27], the pIC50 (Met kinase [1]) was 7.00 to 9.00 and the pIC50 (Met kinase [2]) was 7.00 to 9.00.
For `COc1ccc2nnn(Cc3cccc(-c4ncc(OCCCN(C)C)cn4)c3)c2n1` [Compound B37], the pIC50 (Met kinase [1]) was 7.00 to 9.00 and the pIC50 (Met kinase [2]) was 7.00 to 9.00.
`COCCn1cc(-c2cnc3nnn(Cc4cccc(-c5ncc(OCCN6CCOCC6)cn5)c4)c3n2)cn1` [Compound B33] showed a pIC50 (Met kinase [1]) of 7.00 to 9.00 and a pIC50 (Met kinase [2]) of 7.00 to 9.00.
`N#Cc1cccc(Oc2cnc3nnn(Cc4cccc(-c5ncc(Br)cn5)c4)c3n2)c1` [Compound B6, 3-{3-[3-(5-bromopyrimidin-2-yl)benzyl]-3H-1,2,3-triazolo[4,5-b]pyrazin-5-yloxy}benzonitrile] showed a pIC50 (Met kinase [1]) of 7.00 to 9.00 and a pIC50 (Met kinase [2]) of 7.00 to 9.00.
Compound `N#Cc1cccc(-c2cnc3nnn(Cc4cccc(-c5ncc(OCC6CCNCC6)cn5)c4)c3n2)c1` [Compound A30] has a pIC50 (Met kinase [1]) of 7.00 to 9.00 and a pIC50 (Met kinase [2]) of 7.00 to 9.00.
Work on `Fc1cc(F)cc(Oc2cnc3nnn(Cc4cccc(-c5ncc(Br)cn5)c4)c3n2)c1` [Compound B7, 1-[3-(5-bromopyrimidin-2-yl)benzyl]-6-(3,5-difluorophenoxy)-1H-1,2,3-triazolo[4,5-b]pyrazine] yielded a pIC50 (Met kinase [1]) of 7.00 to 9.00 and a pIC50 (Met kinase [2]) of 7.00 to 9.00.
Work on `Cn1cc(-c2cnc3nnn(Cc4cccc(-c5ncc(OCCCN6CCOCC6)cn5)c4)c3n2)cn1` [Compound B18] yielded a pIC50 (Met kinase [1]) of 7.00 to 9.00 and a pIC50 (Met kinase [2]) of 7.00 to 9.00.
For `Cn1cc(Oc2cnc3nnn(Cc4cccc(-c5ncc(Br)cn5)c4)c3n2)cn1` [Compound B5, 1-[3-(5-bromopyrimidin-2-yl)benzyl]-6-(1-methyl-1H-pyrazol-4-yloxy)-1H-1,2,3-triazolo[4,5-b]pyrazine], the pIC50 (Met kinase [1]) was 7.00 to 9.00 and the pIC50 (Met kinase [2]) was 7.00 to 9.00.
